{
  "source": "patent US9029377B2",
  "about": "“Platelet-activating factor receptor antagonists” (Merck Sharp & Dohme Corp., priority 2009, dated 2015)",
  "data": [
    {"molecular_target": "PAFR (Homo sapiens, UniProt P25105)", "sequence (P25105 whole entry)": "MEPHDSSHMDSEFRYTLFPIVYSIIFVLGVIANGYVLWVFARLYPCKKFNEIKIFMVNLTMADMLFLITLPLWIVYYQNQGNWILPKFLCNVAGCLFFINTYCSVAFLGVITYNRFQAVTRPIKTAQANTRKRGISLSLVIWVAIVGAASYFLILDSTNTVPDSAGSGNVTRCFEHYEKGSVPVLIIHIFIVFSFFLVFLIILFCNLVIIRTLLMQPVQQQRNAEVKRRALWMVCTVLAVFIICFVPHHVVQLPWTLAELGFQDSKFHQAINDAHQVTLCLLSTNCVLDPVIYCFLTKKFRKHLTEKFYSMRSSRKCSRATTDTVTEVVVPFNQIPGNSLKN", "assay": "PAF Binding Assay (PAFR binding)", "units": {"IC50": "nM"}, "values": [
      {"smiles": "CCCCOc1ccc(S(=O)(=O)N[C@H]2CCC[C@@H](n3cnnc3C3CC3)C2)c(F)c1", "note": "[Compound 2Oag, 4-butoxy-N-[(1S,3R)-3-(3-cyclopropyl-4H-1,2,4-triazol-4-yl)cyclohexyl]-2-fluorobenzenesulfonamide]", "IC50": 7.2},
      {"smiles": "CCCCOc1ccc(S(=O)(=O)N[C@H]2CCC[C@@H](n3cnnc3C3CC3)C2)cc1", "note": "[Compound 2Ow, 4-butoxy-N-[(1S,3R)-3-(3-cyclopropyl-4H-1,2,4-triazol-4-yl)cyclohexyl]benzenesulfonamide]", "IC50": 4.1},
      {"smiles": "CCc1cccc(S(=O)(=O)N[C@@H]2C[C@H](n3cnnc3)CC(F)(F)C2)c1", "note": "[Compound 2Pk, N-[(1R,5S)-3,3-difluoro-5-(4H-1,2,4-triazol-4-yl)cyclohexyl]-3-ethylbenzenesulfonamide]", "IC50": 370},
      {"smiles": "Cc1nncn1[C@H]1C[C@@H](NS(=O)(=O)c2ccc(OCCCCF)cc2)CC(F)(F)C1", "note": "[Compound 2Qad, N-[(1R,5S)-3,3-difluoro-5-(3-methyl-4H-1,2,4-triazol-4-yl)cyclohexyl]-4-(4-fluorobutoxy)-benzenesulfonamide]", "IC50": 8.8},
      {"smiles": "Cc1nncn1[C@H]1C[C@@H](NS(=O)(=O)c2ccc(-c3noc(C4CC4)n3)cc2)CC(F)(F)C1", "note": "[Compound 2Ql, 4-(5-cyclopropyl-1,2,4-oxadiazol-3-yl)-N-[(1R,5S)-3,3-difluoro-5-(3-methyl-4H-1,2,4-triazol-4-yl)cyclohexyl]benzenesulfonamide]", "IC50": 8.2},
      {"smiles": "CCCCOc1ccc(S(=O)(=O)N[C@@H]2C[C@H](n3cnnc3C)CC(F)(F)C2)cc1", "note": "[Compound 2Qw, 4-butoxy-N-[(1R,5S)-3,3-difluoro-5-(3-methyl-4H-1,2,4-triazol-4-yl)cyclohexyl]benzenesulfonamide]", "IC50": 4.2},
      {"smiles": "O=S(=O)(N[C@H]1CCC[C@@H](n2cnnc2)C1)c1c(C2CC2)cc(-c2noc(C3CC3)n2)cc1C1CC1", "note": "[Compound 2Ra, 2,6-dicyclopropyl-4-(5-cyclopropyl-1,2,4-oxadiazol-3-yl)-N-[(1S,3R)-3-(4H-1,2,4-triazol-4-yl)cyclohexyl]benzenesulfonamide]", "IC50": 2.4},
      {"smiles": "O=S(=O)(N[C@H]1CCC[C@@H](n2cnnc2)C1)c1c(C2CC2)cc(-c2noc(C3CCC3)n2)cc1C1CC1", "note": "[Compound 2Rb, 4-(5-cyclobutyl-1,2,4-oxadiazol-3-yl)-2,6-dicyclopropyl-N-[(1S,3R)-3-(4H-1,2,4-triazol-4-yl)cyclohexyl]benzenesulfonamide]", "IC50": 0.1},
      {"smiles": "O=S(=O)(N[C@H]1CCC[C@@H](n2cnnc2)C1)c1c(C2CC2)cc(-c2noc(C3CC(F)(F)C3)n2)cc1C1CC1", "note": "[Compound 2Rc, 2,6-dicyclopropyl-4-[5-(3,3-difluorocyclobutyl)-1,2,4-oxadiazol-3-yl]-N-[(1S,3R)-3-(4H-1,2,4-triazol-4-yl)cyclohexyl]benzenesulfonamide]", "IC50": 2.9},
      {"smiles": "O=S(=O)(N[C@H]1CCC[C@@H](n2cnnc2)C1)c1c(F)cc(-c2noc(C3CC3)n2)cc1C1CC1", "note": "[Compound 2Sa, 2-cyclopropyl-4-(5-cyclopropyl-1,2,4-oxadiazol-3-yl)-6-fluoro-N-[(1S,3R)-3-(4H-1,2,4-triazol-4-yl)cyclohexyl]benzenesulfonamide]", "IC50": 8.6},
      {"smiles": "O=S(=O)(N[C@H]1CCC[C@@H](n2cnnc2)C1)c1c(F)cc(-c2noc(C3CCC3)n2)cc1C1CC1", "note": "[Compound 2Sb, 4-(5-cyclobutyl-1,2,4-oxadiazol-3-yl)-2-cyclopropyl-6-fluoro-N-[(1S,3R)-3-(4H-1,2,4-triazol-4-yl)cyclohexyl]benzenesulfonamide]", "IC50": 2.6},
      {"smiles": "CCc1cc(-c2ccc(OC(F)(F)F)cc2)ccc1S(=O)(=O)N[C@H]1CCC[C@@H](n2cnnc2)C1", "note": "[Compound 2b, 3-ethyl-N-[(1S,3R)-3-(4H-1,2,4-triazol-4-yl)cyclohexyl]-4′-(trifluoromethoxy)biphenyl-4-sulfonamide]", "IC50": 3.6},
      {"smiles": "CCc1cc(-c2cccn3ccnc23)ccc1S(=O)(=O)N[C@H]1CCC[C@@H](n2cnnc2)C1", "note": "[Compound 2d, 2-ethyl-4-imidazo[1,2-a]pyridin-8-yl-N-[(1S,3R)-3-(4H-1,2,4-triazol-4-yl)cyclohexyl]benzenesulfonamide]", "IC50": 3.9},
      {"smiles": "O=S(=O)(N[C@H]1CCC[C@@H](n2cnnc2)C1)c1cc(-c2cccc3nccn23)cc(C(F)(F)F)c1", "note": "[Compound 3Aaa, 3-imidazo[1,2-a]-pyridin-5-yl-N-[(1S,3R)-3-(4H-1,2,4-triazol-4-yl)cyclohexyl]-5-(trifluoromethyl)benzenesulfonamide]", "IC50": 13},
      {"smiles": "O=S(=O)(N[C@H]1CCC[C@@H](n2cnnc2)C1)c1cc(-c2cc(Cl)cnc2F)cc(C(F)(F)F)c1", "note": "[Compound 3Aab, 3-(5-chloro-2-fluoropyridin-3-yl)-N-[(1S,3R)-3-(4H-1,2,4-triazol-4-yl)cyclohexyl]-5-(trifluoromethyl)benzenesulfonamide]", "IC50": 4},
      {"smiles": "O=S(=O)(N[C@H]1CCC[C@@H](n2cnnc2)C1)c1cc(-c2cncc(F)c2)cc(C(F)(F)F)c1", "note": "[Compound 3Aac, 3-(5-fluoropyridin-3-yl)-N-[(1S,3R)-3-(4H-1,2,4-triazol-4-yl)cyclohexyl]-5-(trifluoromethyl)benzenesulfonamide]", "IC50": 20},
      {"smiles": "O=S(=O)(N[C@H]1CCC[C@@H](n2cnnc2)C1)c1cc(-c2cccc3ccc(OCC(F)(F)F)nc23)cc(C(F)(F)F)c1", "note": "[Compound 3Aad, N-[(1S,3R)-3-(4H-1,2,4-triazol-4-yl)cyclohexyl]-3-[2-(2,2,2-trifluoroethoxy)quinolin-8-yl]-5-(trifluoromethyl)benzenesulfonamide]", "IC50": 4},
      {"smiles": "O=S(=O)(N[C@H]1CCC[C@@H](n2cnnc2)C1)c1cc(-c2cc3ccccc3o2)cc(C(F)(F)F)c1", "note": "[Compound 3Aae, 3-(1-benzofuran-2-yl)-N-[(1S,3R)-3-(4H-1,2,4-triazol-4-yl)cyclohexyl]-5-(trifluoromethyl)benzenesulfonamide]", "IC50": 1.8},
      {"smiles": "O=S(=O)(N[C@H]1CCC[C@@H](n2cnnc2)C1)c1cc(-c2cc3ccccc3s2)cc(C(F)(F)F)c1", "note": "[Compound 3Aaf, 3-(1-benzothien-2-yl)-N-[(1S,3R)-3-(4H-1,2,4-triazol-4-yl)cyclohexyl]-5-(trifluoromethyl)benzenesulfonamide]", "IC50": 1.2},
      {"smiles": "O=S(=O)(N[C@H]1CCC[C@@H](n2cnnc2)C1)c1cc(-c2ccc3ccc(OCC(F)(F)F)nc3c2)cc(C(F)(F)F)c1", "note": "[Compound 3Aag, N-[(1S,3R)-3-(4H-1,2,4-triazol-4-yl)cyclohexyl]-3-[2-(2,2,2-trifluoroethoxy)quinolin-7-yl]-5-(trifluoromethyl)benzenesulfonamide]", "IC50": 4.9},
      {"smiles": "O=S(=O)(N[C@H]1CCC[C@@H](n2cnnc2)C1)c1cc(-c2ccc3nc(C(F)(F)F)nn3n2)cc(C(F)(F)F)c1", "note": "[Compound 3Aah, N-[(1S,3R)-3-(4H-1,2,4-triazol-4-yl)cyclohexyl]-3-(trifluoromethyl)-5-[2-(trifluoromethyl)[1,2,4]triazolo[1,5-b]pyridazin-6-yl]benzenesulfonamide]", "IC50": 18},
      {"smiles": "Cc1cn2nc(-c3cc(C(F)(F)F)cc(S(=O)(=O)N[C@H]4CCC[C@@H](n5cnnc5)C4)c3)ccc2n1", "note": "[Compound 3Aai, 3-(2-methylimidazo[1,2-b]pyridazin-6-yl)-N-[(1S,3R)-3-(4H-1,2,4-triazol-4-yl)cyclohexyl]-5-(trifluoromethyl)benzenesulfonamide]", "IC50": 4.1},
      {"smiles": "O=S(=O)(N[C@H]1CCC[C@@H](n2cnnc2)C1)c1cc(-c2ccc3nc(C(F)(F)F)cn3n2)cc(C(F)(F)F)c1", "note": "[Compound 3Aaj, N-[(1S,3R)-3-(4H-1,2,4-triazol-4-yl)cyclohexyl]-3-(trifluoromethyl)-5-[2-(trifluoromethyl)imidazo[1,2-b]pyridazin-6-yl]benzenesulfonamide]", "IC50": 27},
      {"smiles": "O=S(=O)(N[C@H]1CCC[C@@H](n2cnnc2)C1)c1cc(-c2ccn3nccc3n2)cc(C(F)(F)F)c1", "note": "[Compound 3Aak, 3-pyrazolo[1,5-a]pyrimidin-5-yl-N-[(1S,3R)-3-(4H-1,2,4-triazol-4-yl)cyclohexyl]-5-(trifluoromethyl)benzenesulfonamide]", "IC50": 3.6},
      {"smiles": "O=S(=O)(N[C@H]1CCC[C@@H](n2cnnc2)C1)c1cc(-c2ccn3ncnc3c2)cc(C(F)(F)F)c1", "note": "[Compound 3Aal, 3-[1,2,4]triazolo[1,5-a]pyridin-7-yl-N-[(1S,3R)-3-(4H-1,2,4-triazol-4-yl)cyclohexyl]-5-(trifluoromethyl)benzenesulfonamide]", "IC50": 42},
      {"smiles": "O=S(=O)(N[C@H]1CCC[C@@H](n2cnnc2)C1)c1cc(-c2cccnc2OCC(F)(F)F)cc(C(F)(F)F)c1", "note": "[Compound 3Aam, N-[(1S,3R)-3-(4H-1,2,4-triazol-4-yl)cyclohexyl]-3-[2-(2,2,2-trifluoroethoxy)pyridin-3-yl]-5-(trifluoromethyl)benzenesulfonamide]", "IC50": 3.2},
      {"smiles": "O=S(=O)(N[C@H]1CCC[C@@H](n2cnnc2)C1)c1cc(-c2ccc3nc(C4CC4)nn3c2)cc(C(F)(F)F)c1", "note": "[Compound 3Aaq, 3-(2-cyclopropyl[1,2,4]triazolo[1,5-a]pyridin-6-yl)-N-[(1S,3R)-3-(4H-1,2,4-triazol-4-yl)cyclohexyl]-5-(trifluoromethyl)benzenesulfonamide]", "IC50": 20},
      {"smiles": "O=S(=O)(N[C@H]1CCC[C@@H](n2cnnc2)C1)c1cc(-c2ccsc2)cc(C(F)(F)F)c1", "note": "[Compound 3Aar, 3-(3-thienyl)-N-[(1S,3R)-3-(4H-1,2,4-triazol-4-yl)cyclohexyl]-5-(trifluoromethyl)benzenesulfonamide]", "IC50": 9.2},
      {"smiles": "O=S(=O)(N[C@H]1CCC[C@@H](n2cnnc2)C1)c1cc(-c2cccs2)cc(C(F)(F)F)c1", "note": "[Compound 3Aas, 3-(2-thienyl)-N-[(1S,3R)-3-(4H-1,2,4-triazol-4-yl)cyclohexyl]-5-(trifluoromethyl)benzenesulfonamide]", "IC50": 3.8},
      {"smiles": "O=S(=O)(N[C@H]1CCC[C@@H](n2cnnc2)C1)c1cc(-c2cc(Cl)cn3ccnc23)cc(C(F)(F)F)c1", "note": "[Compound 3Aat, 3-(6-chloroimidazo[1,2-a]pyridin-8-yl)-N-[(1S,3R)-3-(4H-1,2,4-triazol-4-yl)cyclohexyl]-5-(trifluoromethyl)benzenesulfonamide]", "IC50": 2.7},
      {"smiles": "O=S(=O)(N[C@H]1CCC[C@@H](n2cnnc2)C1)c1cc(-c2cccn3ccnc23)cc(C(F)(F)F)c1", "note": "[Compound 3Aau, 3-imidazo[1,2-a]pyridin-8-yl-N-[(1S,3R)-3-(4H-1,2,4-triazol-4-yl)cyclohexyl]-5-(trifluoromethyl)benzenesulfonamide]", "IC50": 1.4}
    ]}
  ]
}
